Values of other authors, collected in US20160303150A1, “DEUTERATED TREHALOSE FORMULATIONS AND USES THEREOF” (BioBlast Pharma Ltd., priority 2015, published 2016).

Assays:
[1] = in vivo
[2] = 0.2%-5% trehalose in drinking water, 5-9 weeks, transgenic HD mice

OC[C@H]1O[C@H](O[C@H]2O[C@H](CO)[C@@H](O)[C@H](O)[C@H]2O)[C@H](O)[C@@H](O)[C@@H]1O [trehalose, α-G-glucopyranosyl α-D-glucopyranoside]
fraction of administered trehalose not absorbed into the blood stream [1]: over 99.5%
oral amount causing diarrhea and bloating (oral): 40-50 gram per day
safety findings in healthy volunteers (oral doses ranging from 10 to 60 gr, healthy volunteers): no other safety issues were reported
oral amount frequently causing diarrhea, bloating and discomfort (oral, humans): higher than 50 g a day
aggregation formation and toxicity of mutant PABPN1 in myocytes (transgenic OPMD mice; 2% trehalose in drinking water, 4-6 months): significantly reduce aggregation formation and toxicity of the mutant PABPN1 in myocytes
OPMD onset, disease phenotype, aggregate formation and cell death (transgenic OPMD mice; oral trehalose): delay the OPMD onset, attenuate the disease phenotype, decrease polyalanine protein aggregate formation and decrease cell death
HD-related motor symptoms (transgenic HD mice; [2]): improvement of HD-related motor symptoms
formation of intra-nuclear huntingtin aggregates in the brain and liver (transgenic HD mice; [2]): inhibition of formation of intra-nuclear huntingtin aggregates in the brain and liver
survival (transgenic HD mice; oral administration, HD mouse model): extend survival
